Reference: PMC6070671, “Enhancement of Tumor Cell Death by Combining gef Gene Mediated Therapy and New 1,4-Benzoxazepin-2,6-Dichloropurine Derivatives in Breast Cancer Cells” (Frontiers in Pharmacology, 2018)
Values joined by “and” are separate entries in the source; they are usually repeats but may differ in a detail not shown here. Identical values can stand only once.

Experiments:
[1] = system: MCF-7 cancer cell line; experiment: Sulforhodamine-B cytotoxicity assay, MCF-7; type: cell-based; conditions: Homo sapiens, MCF7, 144 h, 6 days of treatment
Description: (§1) To assess the effect of the different drugs on cell viability we used the sulforhodamine-B colorimetric assay. Cells were resuspended and seeded at a density of 5 × 10^3 cells/well onto 12-well plates kept growing for 24 h. After that, the compounds were added at different concentrations to the cells (0.5, 0.7, 1, 2, 5, and 10 μM) (Figure 1). After 72 h treatment, the medium was discarded and fresh medium and treatment was added. Cells were maintained for 3 days more with the treatment. Finally, they were processed as previously described ([Boulaiz et al., 2003b]) using a Titertek Multiscan apparatus (Flow Laboratories, Irvine, United Kingdom) at 492 nm. We used the cell number for each cell stock before each cell growth experiment to set the linearity of the sulforhodamine-B assay. To calculate the IC50 values we used semilogarithmic dose–response curves to make a linear interpolation. All of the experiments were performed in triplicate wells for each treatment and were repeated at least twice.

[2] = system: MCF-7TG cancer cell line; experiment: Sulforhodamine-B cytotoxicity assay, MCF-7TG (gef-expressing); type: cell-based; conditions: Homo sapiens, 144 h; 6 days of treatment, gef gene induced with 1 μM Dex
Source text: (§2) The breast cancer cell line MCF-7 was kindly provided by Dr. N. Olea of the Sánchez Mora Tumoural Biology Institute (University Hospital of Granada). The MCF-7TG cell line, a gef-expressing breast cancer cell line controlled by a mouse mammary tumor virus promoter and inducible by dexamethasone (Dex) was derivates from MCF-7 cells following methodology previously described by us ([Boulaiz et al., 2003b]). A selected MCF-7pMAMneo empty vector positive clone was also used. Non-tumoral breast cell line MCF-10A (ATCC: CRL-10317) was provided by the Cell Bank of the University of Granada (Granada, Spain). MCF-7 cells were cultured in a humidified atmosphere at 37°C with 5% CO2 and Dulbecco’s modified Eagle Medium (DMEM) (Gibco, Grand Island, NY, United States) with 10% heat-inactivated fetal bovine serum (FBS) (Gibco), 2.7% sodium bicarbonate, 2% L-glutamine, 1% Hepes buffer, 500 mg/L ampicillin and 40 mg/L gentamicin. MCF-7TG cells were grown in the same medium described above supplemented by 200 μg/ml geneticin G418 and 1μM Dex to induce gef gene expression. MCF-10A grown in DMEM/F12 medium with 5% horse serum (HS), 0.02 μg/ml epithelial growth factor (EGF), 0.5 μg/ml hydrocortisone, 100 ng/ml cholera toxin and 0.01 μg/ml insulin.
as §1

[3] = system: epithelial MCF-10A cell line; experiment: Sulforhodamine-B cytotoxicity assay, MCF-10A; type: cell-based; conditions: Homo sapiens, non-tumoral breast cell line
Source text: as §2, §1

[4] = system: MCF-7 cells; experiment: In vitro cell proliferation assay over 15 days, MCF-7; type: cell-based, human; conditions: MCF-7, 15 days of treatment
Description: (§3) MCF-7, MCF-7TG, and MCF-7pMAMneo cells were seeded at a density of 25 × 10^3/well into six-well plates using the culture conditions above mentioned. After 24 h, fresh medium was added to the cells and treated with IC50 and 2^∗IC50 of drugs cited in Table 1. No treatment was added to the control groups. To ensure the expression of the gef gene, MCF-7TG cells medium was always treated with 1 μM Dex. Cells in culture were always treated with or without drugs every 3 days when medium was changed up to the end of the assay. Four plates were used to run each treatment and time point (0, 3, 6, 9, 12, and 15 days of treatment). After the end of the treatment, we used sulforhodamine-B to stain the cells as previously described.

[5] = system: MCF-7TG cells; experiment: In vitro cell proliferation assay over 15 days, MCF-7TG; type: cell-based, human; conditions: for growth inhibition: MCF-7TG (gef expressed), 15 days of treatment; for type of synergistic effect with the gef gene: combined with gef gene, proliferation over 15 days
Description: as §3

[6] = system: MCF-7 cell line; experiment: Annexin V-FITC/PI apoptosis flow cytometry, MCF-7; type: cell-based, human; conditions: MCF-7, 72 h, IC50 of compound; control 8.15 ± 0.40%
Source text: (§4) Apoptosis was detected using the apoptosis detection kit for annexin V-FITC (Pharmingen, San Diego, CA, United States) by flow cytometry according to [Boulaiz et al. (2003a)]. […] The results were representative of three independent experiments.

[7] = system: MCF-7TG cell line; experiment: Annexin V-FITC/PI apoptosis flow cytometry, MCF-7TG; type: cell-based, human; conditions: 72 h, IC50 of compound, control 0.74 ± 0.05%
Source text: as §4

[8] = system: MCF-7 cell line; experiment: Flow cytometric analysis of the cell cycle, MCF-7; type: cell-based, human; conditions: MCF-7, 72 h, IC50 of compound; for S phase cells: control 17.41 ± 0.81%; for G2/M phase cells: control 17.56 ± 0.87%
Description: (§5) Cells were grown at 70% confluence and treated with either DMSO alone or with different concentrations of the compounds corresponding to their IC50 values. Flow cytometry analysis was carried out after 72 h of treatment as described ([Marchal et al., 2004]). The results were representative of three independent experiments.

[9] = system: MCF-7TG cell line; experiment: Flow cytometric analysis of the cell cycle, MCF-7TG; type: cell-based, human; conditions: 72 h, IC50 of compound
Description: as §5

SMILES	IC50 [1] [µM]	IC50 [2] [nM]	IC50 [3] [µM]	growth inhibition ([4]; 2*IC50 of compound)	growth inhibition ([4]; IC50 of compound) [%]	growth inhibition ([5]; IC50 of compound) [%]	type of synergistic effect with the gef gene [5]	cells in early apoptosis [6] [%]	necrotic cells [7] [%]	S phase cells [8] [%]	G2/M phase cells [8] [%]	G0/G1 phase cells [9] [%]	growth inhibition ([5]; 2*IC50 of compound)
O=[N+]([O-])c1ccc(S(=O)(=O)N2CC(n3cnc4c(Cl)nc(Cl)nc43)OCc3ccccc32)cc1 (racemic) [Bozepinib, (R,S)-2,6-dichloro-9-[1-(p-nitrobenzenesulfonyl)-1,2,3,5-tetrahydro-4,1-benzoxazepine-3-yl]-9H-purine]	1.23 ± 0.05	560 ± 10	6.33 ± 0.03	89.42%	76	81.42	enhanced synergetic effect	40.41 ± 2.02	47.03 ± 1.07	12.29 ± 0.90	22.98 ± 1.14	85.98 ± 4.29	
COC(CN(c1ccccc1CO)S(=O)(=O)c1ccc([N+](=O)[O-])cc1)n1cnc2c(Cl)nc(Cl)nc21 (stereo not drawn) [ACG-812c-F1]	9.43 ± 0.07	8750 ± 180	17.48 ± 0.12										
O=[N+]([O-])c1ccccc1S(=O)(=O)N1CC(n2cnc3c(Cl)nc(Cl)nc32)OCc2ccccc21 (stereo not drawn) [FC-26c]	2.6 ± 0.1	650 ± 30	9.187 ± 0.08		61.6		enhanced synergetic effect	37.63 ± 1.88	54.38 ± 2.3			81.25 ± 4.05	
Nc1ccccc1S(=O)(=O)N1CC(n2cnc3c(Cl)nc(Cl)nc32)OCc2ccccc21 (stereo not drawn) [FC-29b]	5.02 ± 0.12	1900 ± 20	4.04 ± 0.09	70.48% and 70%	61.91	60	additive synergetic effect	57.62 ± 2.88	51.92 ± 2.09	9.47 ± 0.30	26.12 ± 1.20	80.07 ± 4.01	70.48% and 70%
O=S(=O)(c1ccccc1NO)N1CC(n2cnc3c(Cl)nc(Cl)nc32)OCc2ccccc21 (stereo not drawn) [FC-29d]	8.98 ± 0.3	6700 ± 10	47.12 ± 0.05										
O=[N+]([O-])c1ccccc1S(=O)(=O)N1CC(n2cnc3nc(Cl)nc(Cl)c32)OCc2ccccc21 (stereo not drawn) [FC-30b2]	7.75 ± 0.06	1800 ± 80	9.9 ± 0.08	96%	82	81.14	enhanced synergetic effect	73.27 ± 3.66	65.09 ± 2.47	0.63 ± 0.01	33.22 ± 1.66	72.96 ± 3.50	
